Experimental data reported in US20050239656A1, “Pyridine compounds or salts thereof and herbicides containing the same” (priority 2002, published 2005).

Tests used:
prickly sida = assay: Test Example 2: soil surface treatment, upland pot test; format: in vivo, Sida spinosa L.; conditions: active ingredient 500 g/ha
How it was run: (§1)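 Pre-emergence: the soil surface was sprayed 1 day after sowing with wettable powder or emulsifiable concentrate diluted in water at 1,500 L/ha, at a predetermined active ingredient amount. Growth control was scored visually 20–28 days after treatment, 0 (untreated) to 100 (complete kill).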

velvetleaf = assay: as above; format: in vivo, Abutilon theophrasti MEDIC.; conditions: active ingredient 500 g/ha
How it was run: as §1

redroot pigweed = assay: as above; format: in vivo, Amaranthus retroflexus L.; conditions: active ingredient 500 g/ha
How it was run: as §1

crabgrass = assay: as above; format: in vivo, Digitaria sanguinalis L.; conditions: active ingredient 500 g/ha
How it was run: as §1

rice = assay: as above; format: in vivo, Oryza sativa L.; conditions: active ingredient 500 g/ha
How it was run: as §1

green foxtail = assay: as above; format: in vivo, Setaria viridis L.; conditions: active ingredient 500 g/ha
How it was run: as §1

rice (var. Nihonbare) = assay: Test Example 3: paddy pot test, transplanted rice; format: in vivo, Oryza sativa L.; conditions: applied 4th day after transplantation, visually observed 21st day after application, 0 = non-treated, 100 = complete kill
How it was run: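 Rice (var. Nihonbare) at 2 leaf stage transplanted 3 cm deep into puddled paddy soil under 3–4 cm flooding; on day 4 after transplanting, diluted wettable powder or emulsifiable concentrate applied by pipette under submerged conditions at a set active-ingredient dose. Growth scored visually 21 days after application, 0 (untreated) to 100 (complete kill) %.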

soybean = assay: Test Example 2: soil surface treatment, upland pot test; format: in vivo, Glycine max Merr.; conditions: active ingredient 500 g/ha
How it was run: as §1

japanese ribbon wapato = assay: Test Example 3: paddy pot test, application under submerged conditions; format: in vivo, Sagittaria pygniaea; conditions: submerged application at primary leaf stage, visually observed 14 days after application, 0 = non-treated, 100 = complete kill
How it was run: (§2)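 Visual growth-control rating (0 = untreated, 100 = complete kill) 14 days after treatment. The formulated compound, as a diluted wettable powder or emulsifiable concentrate, went into 3–4 cm flood water at a predetermined active-ingredient dose once the weeds reached 0.5 leaf stage (wapato: primary leaf stage).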

japanese bulrush = assay: as above; format: in vivo, Scirpus juncoides; conditions: submerged application at 0.5 leaf stage, visually observed 14 days after application, 0 = non-treated, 100 = complete kill
How it was run: as §2

barnyardgrass [1] = assay: Test Example 2: soil surface treatment, upland pot test; format: in vivo, Echinochloa crus-galli L.; conditions: active ingredient 500 g/ha
How it was run: as §1

barnyardgrass [2] = assay: Test Example 3: paddy pot test, application under submerged conditions; format: in vivo, Echinochloa crus-galli L.; conditions: submerged application at 0.5 leaf stage, visually observed 14 days after application, 0 = non-treated, 100 = complete kill
How it was run: as §2

corn = assay: Test Example 2: soil surface treatment, upland pot test; format: in vivo, Zea mays L.; conditions: active ingredient 500 g/ha
How it was run: as §1

[3] = observed day 21, 0 = non-treated, 100 = complete kill

SMILES | Growth controlling degree (%) Prickly sida (prickly sida; observed 20th to 28th day) [%] | Growth controlling degree (%) Velvetleaf (velvetleaf; observed 20th to 28th day) [%] | Growth controlling degree (%) Redroot pigweed (redroot pigweed; observed 20th to 28th day) [%] | Growth controlling degree (%) Crabgrass (crabgrass; observed 20th to 28th day) [%] | Growth controlling degree (%) Rice (rice; observed 20th to 28th day) [%] | Growth controlling degree (%) Green foxtail (green foxtail; observed 20th to 28th day) [%] | Growth controlling degree (%) Rice (rice (var. Nihonbare); active ingredient 250 g/ha) [%] | Growth controlling degree (%) Soyabean (soybean; observed 20th to 28th day) [%] | Growth controlling degree (%) Japanese ribbon wapato (japanese ribbon wapato; active ingredient 250 g/ha) [%] | Growth controlling degree (%) Japanese bulrush (japanese bulrush; active ingredient 250 g/ha) [%] | Growth controlling degree (%) Barnyardgrass (barnyardgrass [1]; observed 20th to 28th day) [%] | Growth controlling degree (%) Barnyardgrass (barnyardgrass [2]; active ingredient 250 g/ha) [%] | Growth controlling degree (%) Corn (corn; observed 20th to 28th day) [%] | Growth controlling degree (%) Rice (rice (var. Nihonbare); active ingredient 500 g/ha) [%] | Growth controlling degree (%) Japanese ribbon wapato (japanese ribbon wapato; active ingredient 500 g/ha) [%] | Growth controlling degree (%) Japanese bulrush (japanese bulrush; active ingredient 500 g/ha) [%] | Growth controlling degree (%) Barnyardgrass (barnyardgrass [2]; active ingredient 500 g/ha) [%] | Growth controlling degree (%) Prickly sida (prickly sida; [3]) [%] | Growth controlling degree (%) Velvetleaf (velvetleaf; [3]) [%] | Growth controlling degree (%) Redroot pigweed (redroot pigweed; [3]) [%] | further results
CC(C)C(c1cnccc1C(F)(F)F)N(C)C(=O)Cc1ccsc1 (stereo not shown) [I-170] | 95 | 30 | 30 | 98 | 30 | 100 | 0 | 35 | 70 | 100 | 100 | 100 | 50 | – | – | – | – | – | – | – | –
CC(C)C(c1cnccc1C(F)(F)F)N(C)C(=O)C=Cc1ccc(F)cc1 (stereo not shown) [I-172] | 80 | 10 | 60 | 98 | 20 | 95 | 0 | 0 | 95 | 98 | 40 | 100 | 10 | – | – | – | – | – | – | – | –
CC=CC(=O)N(C)C(c1cnccc1C(F)(F)F)C(C)C (stereo not shown) [I-180] | 80 | 50 | 80 | 100 | 50 | 100 | – | 10 | – | – | 100 | – | 10 | 30 | 60 | 100 | 98 | – | – | – | –
CC(C)C(c1cnccc1C(F)(F)F)N(C)C(=O)CC1C=CCC1 (stereo not shown) [I-183] | 30 | 50 | 95 | 100 | 60 | 100 | – | 10 | – | – | 100 | – | 10 | 10 | 70 | 100 | 100 | – | – | – | –
CC(C)C(c1cnccc1C(F)(F)F)N(C)C(=O)N(C)c1ccccc1 (stereo not shown) [I-232] | 95 | 70 | 80 | 100 | 30 | 100 | – | 0 | – | – | 100 | – | 30 | 60 | 70 | 90 | 100 | – | – | – | –
Cc1cc(Cl)ccc1OCC(=O)N(C)C(c1cnccc1C(F)(F)F)C(C)C (stereo not shown) [I-234] | 50 | 30 | 70 | 98 | 10 | 70 | 0 | 0 | 40 | 90 | 95 | 100 | 0 | – | – | – | – | – | – | – | –
COc1ccc(OCC(=O)N(C)C(c2cnccc2C(F)(F)F)C(C)C)cc1 (stereo not shown) [I-244] | 60 | 0 | 60 | 80 | 20 | 80 | 0 | 0 | 50 | 95 | 50 | 100 | 30 | – | – | – | – | – | – | – | –
CCc1ccc(OCC(=O)N(C)C(c2cnccc2C(F)(F)F)C(C)C)cc1 (stereo not shown) [I-249] | – | – | – | – | – | – | 0 | – | 0 | 98 | – | 98 | – | – | – | – | – | 80 | 50 | 60 | Growth controlling degree (%) Crabgrass (crabgrass; [3]): 98%; Growth controlling degree (%) Rice (rice; [3]): 20%; Growth controlling degree (%) Green foxtail (green foxtail; [3]): 98%; Growth controlling degree (%) Soyabean (soybean; [3]): 20%; Growth controlling degree (%) Barnyardgrass (barnyardgrass [1]; [3]): 95%; Growth controlling degree (%) Corn (corn; [3]): 20%
CC(C)C(c1cnccc1C(F)(F)F)N(C)C(=O)COc1ccc(Br)cc1 (stereo not shown) [I-255] | – | – | – | – | – | – | 0 | – | 20 | 95 | – | 100 | – | – | – | – | – | 98 | 70 | 70 | Growth controlling degree (%) Crabgrass (crabgrass; [3]): 98%; Growth controlling degree (%) Rice (rice; [3]): 20%; Growth controlling degree (%) Green foxtail (green foxtail; [3]): 98%; Growth controlling degree (%) Soyabean (soybean; [3]): 10%; Growth controlling degree (%) Barnyardgrass (barnyardgrass [1]; [3]): 95%; Growth controlling degree (%) Corn (corn; [3]): 30%
CC(C)C(c1cnccc1C(F)(F)F)N(C)C(=O)CSc1ccccc1 (stereo not shown) [I-256] | – | – | – | – | – | – | 0 | – | 20 | 90 | – | 100 | – | – | – | – | – | 10 | 0 | 80 | Growth controlling degree (%) Crabgrass (crabgrass; [3]): 98%; Growth controlling degree (%) Rice (rice; [3]): 0%; Growth controlling degree (%) Green foxtail (green foxtail; [3]): 100%; Growth controlling degree (%) Soyabean (soybean; [3]): 0%; Growth controlling degree (%) Barnyardgrass (barnyardgrass [1]; [3]): 70%; Growth controlling degree (%) Corn (corn; [3]): 10%
